Publication PMC7998309, “Structural-Based Optimizations of the Marine-Originated Meridianin C as Glucose Uptake Agents by Inhibiting GSK-3β” (Marine Drugs, 2021)

Tests used:
[1] = MTT assay for cell viability (cytotoxicity); format: cell-based, human; details: human; HepG2 cells, 48 h incubation, MTT
Experimental: The hepatocyte cell line HepG2 cells obtained from the Type Culture Collection of the Chinese Academy of Sciences (Shanghai, China) were maintained in high-glucose DMEM (Gibco) supplemented with 10% fetal bovine serum (FBS) and 1% penicillin-streptomycin in an atmosphere of 5% CO2 at 37 °C.
Into a 96-well plate, 1 × 10^3 HepG2 cells per well were seeded. After 24 h, stock solutions of test compounds in DMSO were diluted in DMEM to ≤0.1% final DMSO concentration. Cells were treated with various concentrations (2.5–25 µM) of tested compounds for 48 h, and the MTT solution (0.5 mg/mL) was added. After 4 h of incubation at 37 °C for MTT-formazan formation, the supernatant was discarded and 100 µL of DMSO was applied into each well to dissolve formazan crystals. Absorbance at 490 nm was determined spectrophotometrically by using a microplate reader (Epoch, BioTek Instruments, Inc., Winooski, VT, USA).

SMILES	melting point	CC50 at 48 h [1]
CCC(=O)Nc1ccc(-c2cnc(N)nc2-c2c[nH]c3ccc(Br)cc23)cc1 [A1, N-(4-(2-amino-4-(5-bromo-1H-indol-3-yl)pyrimidin-5-yl)phenyl) Propionamide]	193.6 to 194.2 °C	16.7 µM
CCCC(=O)Nc1ccc(-c2cnc(N)nc2-c2c[nH]c3ccc(Br)cc23)cc1 [A2, N-(4-(2-amino-4-(5-bromo-1H-indol-3-yl)pyrimidin-5-yl)phenyl) Butyramide]	187.6 to 188.3 °C	> 25 µM
CC(C)C(=O)Nc1ccc(-c2cnc(N)nc2-c2c[nH]c3ccc(Br)cc23)cc1 [A3, N-(4-(2-amino-4-(5-bromo-1H-indol-3-yl)pyrimidin-5-yl)phenyl) Isobutyramide]	172.6 to 173.3 °C	10.8 µM
CC(C)(C)C(=O)Nc1ccc(-c2cnc(N)nc2-c2c[nH]c3ccc(Br)cc23)cc1 [A4, N-(4-(2-amino-4-(5-bromo-1H-indol-3-yl)pyrimidin-5-yl)phenyl) Pivalamide]	139.6 to 140.3 °C	11.9 µM
Nc1ncc(-c2ccc(NC(=O)Cc3ccccc3)cc2)c(-c2c[nH]c3ccc(Br)cc23)n1 [A5, N-(4-(2-amino-4-(5-bromo-1H-indol-3-yl)pyrimidin-5-yl)phenyl)-2-phenylacetamide]	207.6 to 208.4 °C	20.9 µM
Nc1ncc(-c2ccc(NC(=O)c3ccccc3F)cc2)c(-c2c[nH]c3ccc(Br)cc23)n1 [A7, N-(4-(2-amino-4-(5-bromo-1H-indol-3-yl)pyrimidin-5-yl)phenyl)-2-fluorobenzamide]	159.6 to 160.4 °C	18.1 µM
Nc1ncc(-c2ccc(NC(=O)c3ccccc3Cl)cc2)c(-c2c[nH]c3ccc(Br)cc23)n1 [A10, N-(4-(2-amino-4-(5-bromo-1H-indol-3-yl)pyrimidin-5-yl)phenyl)-2-chlorobenzamide]	211.5 to 212.4 °C	18.4 µM
Nc1ncc(-c2ccc(NC(=O)c3cccc(Cl)c3)cc2)c(-c2c[nH]c3ccc(Br)cc23)n1 [A11, N-(4-(2-amino-4-(5-bromo-1H-indol-3-yl)pyrimidin-5-yl)phenyl)-3-chlorobenzamide]	204.8 to 205.2 °C	18.5 µM
Cc1ccccc1C(=O)Nc1ccc(-c2cnc(N)nc2-c2c[nH]c3ccc(Br)cc23)cc1 [A19, N-(4-(2-amino-4-(5-bromo-1H-indol-3-yl)pyrimidin-5-yl)phenyl)-2-methylbenzamide]	170.7 to 171.6 °C	10.3 µM
COc1ccccc1C(=O)Nc1ccc(-c2cnc(N)nc2-c2c[nH]c3ccc(Br)cc23)cc1 [A22, N-(4-(2-amino-4-(5-bromo-1H-indol-3-yl)pyrimidin-5-yl)phenyl)-2-methoxybenzamide]	154.9 to 155.6 °C	> 25 µM
COc1cccc(C(=O)Nc2ccc(-c3cnc(N)nc3-c3c[nH]c4ccc(Br)cc34)cc2)c1 [A23, N-(4-(2-amino-4-(5-bromo-1H-indol-3-yl)pyrimidin-5-yl)phenyl)-3-methoxybenzamide]	172.6 to 173.3 °C	14.7 µM
Nc1ncc(-c2ccc(NC(=O)c3cc(F)ccc3F)cc2)c(-c2c[nH]c3ccc(Br)cc23)n1 [A25, N-(4-(2-amino-4-(5-bromo-1H-indol-3-yl)pyrimidin-5-yl)phenyl)-2,5-difluorobenzamide]	163.5 to 164.3 °C	8.9 µM
Nc1ncc(-c2ccc(NC(=O)c3cccs3)cc2)c(-c2c[nH]c3ccc(Br)cc23)n1 [A27, N-(4-(2-amino-4-(5-bromo-1H-indol-3-yl)pyrimidin-5-yl)phenyl) thiophene-2-carboxamide]	303.8 to 304.4 °C	10 µM
Nc1ncc(-c2ccc(NC(=O)c3cc4ccccc4cn3)cc2)c(-c2c[nH]c3ccc(Br)cc23)n1 [A28, N-(4-(2-amino-4-(5-bromo-1H-indol-3-yl)pyrimidin-5-yl)phenyl) isoquinoline-3-carboxamide]	189.3 to 190.2 °C	> 25 µM

The next lines start with results.

melting point	SMILES	CC50 at 48 h [1]
187.9 to 188.6 °C	Nc1ncc(-c2ccc(NC(=O)c3ccccc3)cc2)c(-c2c[nH]c3ccc(Br)cc23)n1 [A6, N-(4-(2-amino-4-(5-bromo-1H-indol-3-yl)pyrimidin-5-yl)phenyl) Benzamide]	12.5 µM
183.6 to 184.3 °C	Nc1ncc(-c2ccc(NC(=O)c3cccc(F)c3)cc2)c(-c2c[nH]c3ccc(Br)cc23)n1 [A8, N-(4-(2-amino-4-(5-bromo-1H-indol-3-yl)pyrimidiN-5-yl)phenyl)-3-fluorobenzamide]	6.8 µM
178.6 to 179.4 °C	Nc1ncc(-c2ccc(NC(=O)c3ccc(F)cc3)cc2)c(-c2c[nH]c3ccc(Br)cc23)n1 [A9, N-(4-(2-amino-4-(5-bromo-1H-indol-3-yl)pyrimidin-5-yl)phenyl)-4-fluorobenzamide]	6 µM
261.7 to 262.5 °C	Nc1ncc(-c2ccc(NC(=O)c3ccc(Cl)cc3)cc2)c(-c2c[nH]c3ccc(Br)cc23)n1 [A12, N-(4-(2-amino-4-(5-bromo-1H-indol-3-yl)pyrimidin-5-yl)phenyl)-4-chlorobenzamide]	7.5 µM
176.6 to 177.3 °C	Nc1ncc(-c2ccc(NC(=O)c3cccc(Br)c3)cc2)c(-c2c[nH]c3ccc(Br)cc23)n1 [A14, N-(4-(2-amino-4-(5-bromo-1H-indol-3-yl)pyrimidin-5-yl)phenyl)-3-bromobenzamide]	> 25 µM
276.4 to 277.3 °C	Nc1ncc(-c2ccc(NC(=O)c3ccc(Br)cc3)cc2)c(-c2c[nH]c3ccc(Br)cc23)n1 [A15, N-(4-(2-amino-4-(5-bromo-1H-indol-3-yl)pyrimidin-5-yl)phenyl)-4-bromobenzamide]	7.1 µM
163.6 to 164.3 °C	Nc1ncc(-c2ccc(NC(=O)c3ccccc3C(F)(F)F)cc2)c(-c2c[nH]c3ccc(Br)cc23)n1 [A16, N-(4-(2-amino-4-(5-bromo-1H-indol-3-yl)pyrimidin-5-yl)phenyl)-2-(trifluoromethyl) Benzamide]	9.9 µM
172.6 to 173.3 °C	Nc1ncc(-c2ccc(NC(=O)c3cccc(C(F)(F)F)c3)cc2)c(-c2c[nH]c3ccc(Br)cc23)n1 [A17, N-(4-(2-amino-4-(5-bromo-1H-indol-3-yl)pyrimidin-5-yl)phenyl)-3-(trifluoromethyl) Benzamide]	14.3 µM
312.7 to 313.4 °C	Nc1ncc(-c2ccc(NC(=O)c3ccc(C(F)(F)F)cc3)cc2)c(-c2c[nH]c3ccc(Br)cc23)n1 [A18, N-(4-(2-amino-4-(5-bromo-1H-indol-3-yl)pyrimidin-5-yl)phenyl)-4-(trifluoromethyl) Benzamide]	4.2 µM
211.8 to 212.9 °C	Cc1cccc(C(=O)Nc2ccc(-c3cnc(N)nc3-c3c[nH]c4ccc(Br)cc34)cc2)c1 [A20, N-(4-(2-amino-4-(5-bromo-1H-indol-3-yl)pyrimidin-5-yl)phenyl)-3-methylbenzamide]	13.2 µM
184.6 to 185.3 °C	COc1ccc(C(=O)Nc2ccc(-c3cnc(N)nc3-c3c[nH]c4ccc(Br)cc34)cc2)cc1 [A24, N-(4-(2-amino-4-(5-bromo-1H-indol-3-yl)pyrimidin-5-yl)phenyl)-4-methoxybenzamide]	4.3 µM
